Structures can show the parent of a compound that is named as a salt.
Target: T1, hGOAT (Homo sapiens, UniProt Q96T53)
T1 construct: expressed in transfected cells; host or cells: HEK293 (Hek293 hGOAT/PPGhrl Clone #1B8)
T1 sequence (Q96T53 1-435): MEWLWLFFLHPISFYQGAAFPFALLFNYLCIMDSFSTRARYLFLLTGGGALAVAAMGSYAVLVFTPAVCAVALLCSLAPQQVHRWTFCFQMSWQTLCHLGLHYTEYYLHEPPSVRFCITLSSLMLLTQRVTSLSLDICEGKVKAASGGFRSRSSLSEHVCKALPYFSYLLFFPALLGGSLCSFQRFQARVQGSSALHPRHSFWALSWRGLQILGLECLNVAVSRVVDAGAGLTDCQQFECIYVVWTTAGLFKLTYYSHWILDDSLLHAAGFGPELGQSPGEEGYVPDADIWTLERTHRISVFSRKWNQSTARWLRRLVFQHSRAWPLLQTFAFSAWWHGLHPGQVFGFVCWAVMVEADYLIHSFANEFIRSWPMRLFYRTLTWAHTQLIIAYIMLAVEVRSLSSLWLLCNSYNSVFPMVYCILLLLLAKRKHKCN
Assay: Determination of hGOAT activity in HEK293 cells after incubation with test compound (acyl-ghrelin ELISA)
Assay type: cell-based
Details: HEK293 cells stably transfected with preproghrelin and human GOAT; octanoate-BSA 100 μM; 5 hours incubation; acyl-ghrelin in medium by ELISA; 8 compound concentrations

Structure (SMILES) | IC50 [nM]
Cc1nc2nonc2c(N)c1Cc1ccc(C(C)(C)C(N)=O)nc1 [Compound 19.3, 2-[5-({7-Amino-5-methyl-[1,2,5]oxadiazolo[3,4-b]pyridin-6-yl}methyl)pyridin-2-yl]-2-methylpropanamide] | 0.555
Cc1nc2nonc2c(N)c1Cc1ccc(C(C)(C)C(=O)O)nc1 [Compound 19.4, 2-[5-({7-Amino-5-methyl-[1,2,5]oxadiazolo[3,4-b]pyridin-6-yl}methyl)pyridin-2-yl]-2-methylpropanoic Acid] | 0.534
Cc1nc2nonc2c(N)c1Cc1ccc(-n2cccn2)nc1 [Compound 20.2, 5-Methyl-6-{[6-(1H-pyrazol-1-yl)pyridin-3-yl]methyl}-[1,2,5]oxadiazolo[3,4-b]pyridin-7-amine Trifluoro-Acetic Acid Salt] | 3.24
Cc1nc2nonc2c(N)c1Cc1ccc(OC2CCOCC2)nc1 [Compound 21.12, 5-Methyl-6-[6-(tetrahydro-pyran-4-yloxy)-pyridin-3-ylmethyl]-[1,2,5]oxadiazolo[3,4-b]pyridin-7-ylamine] | 0.978
Cc1nc2nonc2c(N)c1C(=O)c1ccc(OC(F)(F)F)cc1 [Compound 22.2, 5-Methyl-6-[4-(trifluoromethoxy)benzoyl]-[1,2,5]oxadiazolo[3,4-b]pyridin-7-amine] | 2.49
Nc1c(Cc2ccc(Br)cc2)c(Cl)nc2nonc12 [Compound 23.1, 6-[(4-Bromophenyl)methyl]-5-chloro-[1,2,5]oxadiazolo[3,4-b]pyridin-7-amine] | 0.485
Nc1c(Cc2ccc(C(F)(F)F)cc2)c(Cl)nc2nonc12 [Compound 23.2, 5-Chloro-6-{[4-(trifluoromethyl)phenyl]methyl}-[1,2,5]oxadiazolo[3,4-b]pyridin-7-amine] | 0.232
Nc1c(Cc2ccc(OC(F)(F)F)cc2)c(Cl)nc2nonc12 [Compound 23.3, 5-Chloro-6-{[4-(trifluoromethoxy)phenyl]methyl}-[1,2,5]oxadiazolo[3,4-b]pyridin-7-amine] | 0.298
Nc1c(Cc2ccc(F)cc2)c(Cl)nc2nonc12 [Compound 23.5, 5-Chloro-6-[(4-fluorophenyl)methyl]-[1,2,5]oxadiazolo[3,4-b]pyridin-7-amine] | 0.737
COc1cc(Cc2c(Cl)nc3nonc3c2N)ccc1Br [Compound 23.6, 6-[(4-Bromo-3-methoxyphenyl)methyl]-5-chloro-[1,2,5]oxadiazolo[3,4-b]pyridin-7-amine] | 0.078
Nc1c(Cc2ccc(C(F)(F)F)cc2)c(Br)nc2nonc12 [Compound 24.1, 5-Bromo-6-{[4-(trifluoromethyl)phenyl]methyl}-[1,2,5]oxadiazolo[3,4-b]pyridin-7-amine] | 0.475
Nc1c(Cc2ccc(C(F)(F)F)cc2)c(CO)nc2nonc12 [Compound 24.2, (7-Amino-6-{[4-(trifluoromethyl)phenyl]methyl}-[1,2,5]oxadiazolo[3,4-b]pyridin-5-yl)methanol] | 5.73
CN(C)c1nc2nonc2c(N)c1Cc1ccc(C(F)(F)F)cc1 [Compound 24.3, N5,N5-Dimethyl-6-{[4-(trifluoromethyl)phenyl]methyl}-[1,2,5]oxadiazolo[3,4-b]pyridine-5,7-diamine Trifluoroacetic Acid Salt] | 6.12
Nc1c(Cc2ccc(C(F)(F)F)cc2)c(C(F)F)nc2nonc12 [Compound 24.5, 5-(Difluoromethyl)-6-{[4-(trifluoromethyl)phenyl]methyl}-[1,2,5]oxadiazolo[3,4-b]pyridin-7-amine] | 0.289
Cc1nc2nonc2c(N)c1Cc1ccc(Cl)nc1C(F)F [Compound 25.1, 6-{[6-Chloro-2-(difluoromethyl)pyridin-3-yl]methyl}-5-methyl-[1,2,5]oxadiazolo[3,4-b]pyridin-7-amine] | 3.5
Cc1nc2nonc2c(N)c1Cc1cnc(Cl)cc1C(F)F [Compound 25.2, 6-{[6-Chloro-4-(difluoromethyl)pyridin-3-yl]methyl}-5-methyl-[1,2,5]oxadiazolo[3,4-b]pyridin-7-amine] | 4.84

The next lines start with the values.

IC50 [nM] | Structure (SMILES)
8.42 | Cc1nc2nonc2c(N)c1Cc1ccc(C2(C(=O)O)CC2)nc1 [Compound 19.2, 1-[5-({7-Amino-5-methyl-[1,2,5]oxadiazolo[3,4-b]pyridin-6-yl}methyl)pyridin-2-yl]cyclopropane-1-carboxylic Acid]
2.22 | Cc1nc2nonc2c(N)c1Cc1ccc(Br)c(C(N)=O)c1 [Compound 19.5, 5-({7-Amino-5-methyl-[1,2,5]oxadiazolo[3,4-b]pyridin-6-yl}methyl)-2-bromobenzamide]
2.06 | Cc1nc2nonc2c(N)c1Cc1ccc(F)c(C(N)=O)c1 [Compound 19.6, 5-({7-Amino-5-methyl-[1,2,5]oxadiazolo[3,4-b]pyridin-6-yl}methyl)-2-fluorobenzamide]
7.97 | Cc1nc2nonc2c(N)c1Cc1ccc(C(F)(F)F)c(C(N)=O)c1 [Compound 19.7, 5-({7-Amino-5-methyl-[1,2,5]oxadiazolo[3,4-b]pyridin-6-yl}methyl)-2-(trifluoromethyl) benzamide]
4.63 | Cc1nc2nonc2c(N)c1Cc1ccc(-n2cc(C#N)cn2)nc1 [Compound 20.1, 1-[5-({7-Amino-5-methyl-[1,2,5]oxadiazolo[3,4-b]pyridin-6-yl}methyl)pyridin-2-yl]-1H-pyrazole-4-carbonitrile Trifluoro-Acetic Acid Salt]
0.099 | Cc1nc2nonc2c(N)c1Cc1ccc(C#N)c(OCC(F)(F)F)c1 [Compound 21.1, 4-({7-Amino-5-methyl-[1,2,5]oxadiazolo[3,4-b]pyridin-6-yl}methyl)-2-(2,2,2-trifluoroethoxy)benzonitrile]
0.176 | Cc1nc2nonc2c(N)c1Cc1ccc(C#N)c(OCC(F)F)c1 [Compound 21.2, 4-({7-Amino-5-methyl-[1,2,5]oxadiazolo[3,4-b]pyridin-6-yl}methyl)-2-(2,2-difluoroethoxy)benzonitrile]
1.58 | Cc1nc2nonc2c(N)c1Cc1ccc(C#N)c(O[C@H]2CCNC2=O)c1 [Compound 21.3, 4-({7-Amino-5-methyl-[1,2,5]oxadiazolo[3,4-b]pyridin-6-yl}methyl)-2-{[(3S)-2-oxopyrrolidin-3-yl]oxy}benzonitrile]
0.786 | Cc1nc2nonc2c(N)c1Cc1ccc(C#N)c(OCCC(F)(F)F)c1 [Compound 21.4, 4-({7-Amino-5-methyl-[1,2,5]oxadiazolo[3,4-b]pyridin-6-yl}methyl)-2-(3,3,3-trifluoropropoxy)benzonitrile]
0.198 | Cc1nc2nonc2c(N)c1Cc1ccc(C#N)c(OCC2CC2(F)F)c1 (stereo not drawn) [Compound 21.5, 4-({7-Amino-5-methyl-[1,2,5]oxadiazolo[3,4-b]pyridin-6-yl}methyl)-2-[(2,2-difluorocyclopropyl)methoxy]benzonitrile]
0.15 | Cc1nc2nonc2c(N)c1Cc1ccc(C#N)c(OCC(C)(C)O)c1 [Compound 21.6, 4-({7-Amino-5-methyl-[1,2,5]oxadiazolo[3,4-b]pyridin-6-yl}methyl)-2-(2-hydroxy-2-methylpropoxy)benzonitrile]
0.278 | Cc1nc2nonc2c(N)c1Cc1ccc(C#N)c(OCC2(C(F)(F)F)CC2)c1 [Compound 21.7, 4-({7-Amino-5-methyl-[1,2,5]oxadiazolo[3,4-b]pyridin-6-yl}methyl)-2-{[1-(trifluoromethyl)cyclopropyl]methoxy}benzonitrile]
1.09 | Cc1nc2nonc2c(N)c1Cc1ccc(C#N)c(OC2CCN(C)C2)c1 (stereo not drawn) [Compound 21.8, 4-(7-Amino-5-methyl-[1,2,5]oxadiazolo[3,4-b]pyridin-6-ylmethyl)-2-(1-methyl-pyrrolidin-3-yloxy)-benzonitrile]
17 | Cc1nc2nonc2c(N)c1Cc1ccc(C#N)c(O[C@H]2CCC(=O)NC2)c1 [Compound 21.9, 4-({7-Amino-5-methyl-[1,2,5]oxadiazolo[3,4-b]pyridin-6-yl}methyl)-2-{[(3S)-6-oxopiperidin-3-yl]oxy}benzonitrile]
2.57 | Cc1nc2nonc2c(N)c1Cc1ccc(OC2CCOC2)nc1 (stereo not drawn) [Compound 21.10, 5-Methyl-6-{[6-(oxolan-3-yloxy)pyridin-3-yl]methyl}-[1,2,5]oxadiazolo[3,4-b]pyridin-7-amine]
1.92 | Cc1nc2nonc2c(N)c1Cc1ccc(OCC2(C)COC2)nc1 [Compound 21.11, 5-Methyl-6-({6-[(3-methyloxetan-3-yl)methoxy]pyridin-3-yl}methyl)-[1,2,5]oxadiazolo[3,4-b]pyridin-7-amine]
0.432 | Cc1nc2nonc2c(N)c1Cc1ccc(Cl)cc1 [Compound 22.1, 6-[(4-Chlorophenyl)methyl]-5-methyl-[1,2,5]oxadiazolo[3,4-b]pyridin-7-amine]
0.139 | COc1cc(Cc2c(Cl)nc3nonc3c2N)ccc1C(F)(F)F [Compound 23.4, 5-Chloro-6-{[3-methoxy-4-(trifluoromethyl)phenyl]methyl}-[1,2,5]oxadiazolo[3,4-b]pyridin-7-amine]
0.178 | COc1cc(Cc2c(Cl)nc3nonc3c2N)ccc1C#N [Compound 23.7, 4-({7-Amino-5-chloro-[1,2,5]oxadiazolo[3,4-b]pyridin-6-yl}methyl)-2-methoxybenzonitrile]
2.42 | N#Cc1nc2nonc2c(N)c1Cc1ccc(C(F)(F)F)cc1 [Compound 24.4, 7-Amino-6-{[4-(trifluoromethyl)phenyl]methyl}-[1,2,5]oxadiazolo[3,4-b]pyridine-5-carbonitrile]
